Like-named read-outs stand apart in the source and are kept apart here.
Molecular target: human μ-opiate receptor (Homo sapiens, UniProt P35372)
Assay: Affinity for the human μ-opiate receptor ([3H]-naloxone displacement, SPA, CHO-K1 membrane preparation)
Type: binding
Conditions: for inhibition at 1 µM: read-out: μ-Opioid receptor, % inhibition [1 μM]; for Ki: read-out: μ-Opioid receptor, Ki
[1] = 1 μM test substance, inhibition of specific [3H]-naloxone binding

Sequence of human μ-opiate receptor (P35372 whole entry): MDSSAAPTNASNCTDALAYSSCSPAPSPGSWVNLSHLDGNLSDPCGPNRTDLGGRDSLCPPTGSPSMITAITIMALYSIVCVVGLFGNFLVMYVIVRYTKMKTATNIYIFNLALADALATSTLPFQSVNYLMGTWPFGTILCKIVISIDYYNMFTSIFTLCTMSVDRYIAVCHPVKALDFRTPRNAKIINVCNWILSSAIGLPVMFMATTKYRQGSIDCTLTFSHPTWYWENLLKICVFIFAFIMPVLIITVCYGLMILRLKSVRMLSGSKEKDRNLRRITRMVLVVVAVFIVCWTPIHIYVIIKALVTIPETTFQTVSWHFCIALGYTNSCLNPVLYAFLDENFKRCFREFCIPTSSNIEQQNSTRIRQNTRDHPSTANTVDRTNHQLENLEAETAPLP

Row | Compound | inhibition at 1 µM [%] | Ki [µM] | μ-Opioid receptor, % inhibition [1 μM] [%] | inhibition at 1 µM [1] [%]
1 | CN(C)C(c1ccccc1)C1CCC(NC(=O)c2ccccc2Br)CC1 (stereo not drawn) [compound 286, 2-bromo-N-[4-(dimethylamino-phenyl-methyl)-cyclohexyl]-benzamide] | 71 | 0.054 | – | –
2 | CN(C)C(c1cccc(F)c1)C1CCC(CCNC(=O)c2cccc(Cl)c2)CC1 (single isomer, unassigned) [compound 401, 3-chloro-N-(2-{4-[dimethylamino-(3-fluoro-phenyl)-methyl]-cyclohexyl}-ethyl)-benzamide] | – | 0.011 | 97 | –
3 | CN(C)C(c1ccccc1)C1CCC(NC(=O)c2cc(F)c(F)cc2F)CC1 (stereo not drawn) [compound 196, N-[4-(dimethylamino-phenyl-methyl)-cyclohexyl]-2,4,5-trifluoro-benzamide] | 96 | 0.019 | – | –
4 | CN(C)C(c1ccccc1)C1CCC(NC(=O)c2csc3ccccc23)CC1 (stereo not drawn) [compound 183, benzo[b]thiophene-3-carboxylic acid [4-(dimethylamino-phenyl-methyl)-cyclohexyl]-amide] | 103 | 0.0039 | – | –
5 | CN(C)C(c1cccc(F)c1)C1CCC(CCNC(=O)c2ccc(Cl)cc2)CC1 (stereo not drawn) [compound 406, 4-chloro-N-(2-{4-[dimethylamino-(3-fluoro-phenyl)-methyl]-cyclohexyl}-ethyl)-benzamide] | 81 | 0.04 | – | –
6 | CN(C)C(c1ccc(F)cc1)C1CCC(CNC(=O)c2csc3ccccc23)CC1 (stereo not drawn) [compound 344, benzo[b]thiophene-3-carboxylic acid {4-[dimethylamino-(4-fluoro-phenyl)-methyl]-cyclohexylmethyl}-amide] | 90 | 0.013 | – | –
7 | CN(C)C(c1ccccc1)C1CCC(CCNC(=O)c2cncc(Br)c2)CC1 (stereo not drawn) [compound 473, 5-bromo-N-{2-[4-(dimethylamino-phenyl-methyl)-cyclohexyl]-ethyl}-nicotinamide] | 91 | 0.018 | – | –
8 | CN(C)C(c1cccc(F)c1)C1CCC(CCNC(=O)c2cc(F)cc(F)c2)CC1 (stereo not drawn) [compound 435, N-(2-{4-[dimethylamino-(3-fluoro-phenyl)-methyl]-cyclohexyl}-ethyl)-3,5-difluoro-benzamide] | 99 | 0.014 | – | –
9 | CN(C)C(c1ccc(Cl)cc1)C1CCC(CCNC(=O)c2cc(F)c(Cl)cc2Cl)CC1 (stereo not drawn) [compound 437, 2,4-dichloro-N-(2-{4-[(4-chloro-phenyl)-dimethylamino-methyl]-cyclohexyl}-ethyl)-5-fluoro-benzamide] | 80 | 0.1 | – | –
10 | COc1ccccc1C(=O)NCC1CCC(C(c2cccc(F)c2)N(C)C)CC1 (stereo not drawn) [compound 368, N-{4-[dimethylamino-(3-fluoro-phenyl)-methyl]-cyclohexylmethyl}-2-methoxy-benzamide] | 84 | 0.034 | – | –
11 | CN(C)C(c1cccs1)C1CCC(CNC(=O)c2cccc(C#N)c2)CC1 (stereo not drawn) [compound 347, 3-cyano-N-[4-(dimethylamino-thiophen-2-yl-methyl)-cyclohexylmethyl]-benzamide] | 90 | 0.026 | – | –
12 | CC(Oc1ccccc1)C(=O)NCC1CCC(C(c2ccccc2)N(C)C)CC1 (stereo not drawn) [compound 323, N-[4-(dimethylamino-phenyl-methyl)-cyclohexylmethyl]-2-phenoxy-propionamide] | 95 | 0.015 | – | –
13 | COc1c(C(=O)NCCC2CCC(C(c3ccc(F)cc3)N(C)C)CC2)csc1Cl (stereo not drawn) [compound 475, 5-chloro-4-methoxy-thiophene-3-carboxylic acid (2-{4-[dimethylamino-(4-fluoro-phenyl)-methyl]-cyclohexyl}-ethyl)-amide] | 97 | 0.0069 | – | –
14 | Cc1cc(C(=O)NC2CCC(C(c3cccs3)N(C)C)CC2)n(C(C)(C)C)n1 (stereo not drawn) [compound 201, 2-tert-butyl-5-methyl-2H-pyrazole-3-carboxylic acid [4-(dimethylamino-thiophen-2-yl-methyl)-cyclohexyl]-amide] | 94 | 0.016 | – | –
15 | Cc1ccc(Oc2ncccc2C(=O)NCC2CCC(C(c3ccc(Cl)cc3)N(C)C)CC2)cc1 (stereo not drawn) [compound 382, N-{4-[(4-chloro-phenyl)-dimethylamino-methyl]-cyclohexylmethyl}-2-p-tolyloxy-nicotinamide] | 83 | – | – | –
16 | Cc1cc(C(=O)NCC2CCC(C(c3ccc(Cl)cc3)N(C)C)CC2)no1 (stereo not drawn) [compound 385, 5-methyl-isoxazole-3-carboxylic acid {4-[(4-chloro-phenyl)-dimethylamino-methyl]-cyclohexylmethyl}-amide] | 82 | 0.068 | – | –
17 | CC(=O)N(C(C)Cc1c[nH]c2ccccc12)C1CCC(C(c2ccccc2)N(C)C)CC1 (stereo not drawn) [compound 177] | – | 0.0072 | 86 | –
18 | CN(C)C(c1cccs1)C1CCC(CCNC(=O)c2ccccc2F)CC1 (stereo not drawn) [compound 428, N-{2-[4-(dimethylamino-thiophen-2-yl-methyl)-cyclohexyl]-ethyl}-2-fluoro-benzamide] | 97 | 0.0054 | – | –
19 | CCC(C)C(=O)NCC1CCC(C(c2ccccc2)N(C)C)CC1 (stereo not drawn) [compound 387, N-[4-(dimethylamino-phenyl-methyl)-cyclohexylmethyl]-2-methyl-butyramide] | 81 | 0.07 | – | –

Row | Compound | inhibition at 1 µM [%] | Ki [µM] | μ-Opioid receptor, % inhibition [1 μM] [%] | inhibition at 1 µM [1] [%]
20 | CN(C)C(c1ccc(F)cc1)C1CCC(NC(=O)c2cccc(Br)c2)CC1 (stereo not drawn) [compound 263, 3-bromo-N-{4-[dimethylamino-(4-fluoro-phenyl)-methyl]-cyclohexyl}-benzamide] | 78 | 0.028 | – | –
21 | CN(C)C(c1cccc(F)c1)C1CCC(NC(=O)c2ccc(-c3ccccn3)s2)CC1 (stereo not drawn) [compound 267, 5-pyridin-2-yl-thiophene-2-carboxylic acid {4-[dimethylamino-(3-fluoro-phenyl)-methyl]-cyclohexyl}-amide] | 77 | 0.15 | – | –
22 | COc1ccc(C(=O)NCCC2CCC(C(c3ccccc3)N(C)C)CC2)c(OC)c1 (stereo not drawn) [compound 478, N-{2-[4-(dimethylamino-phenyl-methyl)-cyclohexyl]-ethyl}-2,4-dimethoxy-benzamide] | 95 | 0.027 | – | –
23 | Cc1cc(C2(O)CCC(C(c3ccccc3)N(C)C)CC2)ccc1F (stereo not drawn) [compound 151, 4-(dimethylamino-phenyl-methyl)-1-(4-fluoro-3-methyl-phenyl)-cyclohexanol] | – | – | – | 71
24 | COc1ccc(C(=O)NC2CCC(C(c3cccs3)N(C)C)CC2)c(OC)c1 (stereo not drawn) [compound 202, N-[4-(dimethylamino-thiophen-2-yl-methyl)-cyclohexyl]-2,4-dimethoxy-benzamide] | 94 | 0.031 | – | –
25 | COc1ccccc1C(=O)NC1CCC(C(c2cccs2)N(C)C)CC1 (stereo not drawn) [compound 207, N-[4-(dimethylamino-thiophen-2-yl-methyl)-cyclohexyl]-2-methoxy-benzamide] | 92 | 0.028 | – | –
26 | CN(C)C(c1ccc(Cl)cc1)C1CCC(CNC(=O)CC(C)(C)C)CC1 (stereo not drawn) [compound 309, N-{4-[(4-chloro-phenyl)-dimethylamino-methyl]-cyclohexylmethyl}-3,3-dimethyl-butyramide] | 98 | 0.0056 | – | –
27 | CN(C)C(c1ccccc1)C1CCC(NC(=O)c2cccc(C(F)(F)F)c2)CC1 (stereo not drawn) [compound 203, N-[4-(dimethylamino-phenyl-methyl)-cyclohexyl]-3-trifluoromethyl-benzamide] | 94 | 0.051 | – | –
28 | CN(C)C(c1ccccc1)C1CCC(NC(=O)c2cccc(Br)c2)CC1 (stereo not drawn) [compound 197, 3-bromo-N-[4-(dimethylamino-phenyl-methyl)-cyclohexyl]-benzamide] | 96 | 0.016 | – | –
29 | Cc1ccc(Oc2ncccc2C(=O)NCC2CCC(C(c3cccs3)N(C)C)CC2)cc1 (stereo not drawn) [compound 352, N-[4-(dimethylamino-thiophen-2-yl-methyl)-cyclohexylmethyl]-2-p-tolyloxy-nicotinamide] | 87 | – | – | –
30 | CN(C)C(c1cccc(F)c1)C1CCC(O)(CCc2ccccc2)CC1 (stereo not drawn) [compound 153, 4-[dimethylamino-(3-fluoro-phenyl)-methyl]-1-phenethyl-cyclohexanol] | – | – | – | 87
31 | CN(C)C(c1ccccc1)C1CCC(CNC(=O)c2cccc(Br)c2)CC1 (stereo not drawn) [compound 358, 3-bromo-N-[4-(dimethylamino-phenyl-methyl)-cyclohexylmethyl]-benzamide] | 86 | 0.011 | – | –
32 | COc1ccccc1C(=O)NCCC1CCC(C(c2cccc(F)c2)N(C)C)CC1 (stereo not drawn) [compound 415, N-(2-{4-[dimethylamino-(3-fluoro-phenyl)-methyl]-cyclohexyl}-ethyl)-2-methoxy-benzamide] | 99 | 0.0051 | – | –
33 | Cc1oc(-c2ccccc2)cc1C(=O)NC1CCC(C(c2ccccc2)N(C)C)CC1 (stereo not drawn) [compound 214, 2-methyl-5-phenyl-furan-3-carboxylic acid [4-(dimethylamino-phenyl-methyl)-cyclohexyl]-amide] | 91 | 0.028 | – | –
34 | CN(C)C(c1ccc(F)cc1)C1CCC(CNC(=O)Cc2cccs2)CC1 (stereo not drawn) [compound 359, N-{4-[dimethylamino-(4-fluoro-phenyl)-methyl]-cyclohexylmethyl}-2-thiophen-2-yl-acetamide] | 86 | – | – | –
35 | CN(C)C(c1ccccc1)C1CCC(CNC(=O)c2cncc(Br)c2)CC1 (stereo not drawn) [compound 386, 5-bromo-N-[4-(dimethylamino-phenyl-methyl)-cyclohexylmethyl]-nicotinamide] | 82 | 0.1 | – | –
36 | CN(C)C(c1ccccc1)C1CCC(NC(=O)c2cccc(C#N)c2)CC1 (stereo not drawn) [compound 261, 3-cyano-N-[4-(dimethylamino-phenyl-methyl)-cyclohexyl]-benzamide] | 78 | 0.13 | – | –
37 | CC(=O)N(Cc1ccc(F)cc1)C1CCC(C(c2ccccc2)N(C)C)CC1 (stereo not drawn) [compound 179, N-(4-((dimethylamino)(phenyl)methyl)cyclohexyl)-N-(4-fluorobenzyl)acetamide] | 99 | 0.003 | – | –

Reference: patent publication US8058475B2, “Substituted cyclohexylmethyl compounds” (Gruenenthal GmbH, priority 2005, dated 2011)
